Assay results as given in PMC3744640 (Bioorganic & medicinal chemistry letters, 2013).
“Also recorded” adds a separate entry of the source.

Legend:
VEGFR-2 = VEGFR-2 (Homo sapiens, UniProt P35968); experiment: VEGFR-2 inhibition at a single concentration; type: biochemical; conditions: 10 μM concentration of test compound
[1] = system: lipopolysaccharide-induced inflammation; conditions: lipopolysaccharide-induced inflammation murine model; cited from earlier work
C-RAF = C-RAF (Homo sapiens, UniProt P04049); experiment: C-RAF kinase inhibition; type: biochemical; conditions: compared with t-CUPM
C-RAF, sequence (P04049 whole entry): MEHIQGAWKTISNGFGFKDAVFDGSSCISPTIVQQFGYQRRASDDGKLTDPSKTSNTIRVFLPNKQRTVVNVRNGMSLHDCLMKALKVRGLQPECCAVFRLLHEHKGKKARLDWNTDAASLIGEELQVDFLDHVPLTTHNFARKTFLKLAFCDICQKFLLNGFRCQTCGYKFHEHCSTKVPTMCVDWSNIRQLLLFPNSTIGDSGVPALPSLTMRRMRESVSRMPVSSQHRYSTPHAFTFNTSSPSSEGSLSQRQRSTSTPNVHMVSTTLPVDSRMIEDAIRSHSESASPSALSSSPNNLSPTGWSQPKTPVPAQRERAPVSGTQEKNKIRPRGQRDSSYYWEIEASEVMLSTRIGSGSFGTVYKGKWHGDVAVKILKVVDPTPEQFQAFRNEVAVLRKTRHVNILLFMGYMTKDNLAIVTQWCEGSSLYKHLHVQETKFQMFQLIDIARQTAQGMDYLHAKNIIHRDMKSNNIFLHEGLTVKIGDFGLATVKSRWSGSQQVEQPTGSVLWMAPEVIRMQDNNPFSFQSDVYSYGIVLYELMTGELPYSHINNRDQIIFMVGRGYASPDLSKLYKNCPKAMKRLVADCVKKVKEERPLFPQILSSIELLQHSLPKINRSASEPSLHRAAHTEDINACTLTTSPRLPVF

10 recombinant kinases = conditions: 10 μM concentration
HepG2 = experiment: growth inhibition of HepG2 liver carcinoma cells; type: cell-based; conditions: up to 100 μM
Huh-7 = experiment: growth inhibition of Huh-7 liver carcinoma cells; type: cell-based; conditions: up to 100 μM

VEGFR-2, sequence (P35968 20-1356): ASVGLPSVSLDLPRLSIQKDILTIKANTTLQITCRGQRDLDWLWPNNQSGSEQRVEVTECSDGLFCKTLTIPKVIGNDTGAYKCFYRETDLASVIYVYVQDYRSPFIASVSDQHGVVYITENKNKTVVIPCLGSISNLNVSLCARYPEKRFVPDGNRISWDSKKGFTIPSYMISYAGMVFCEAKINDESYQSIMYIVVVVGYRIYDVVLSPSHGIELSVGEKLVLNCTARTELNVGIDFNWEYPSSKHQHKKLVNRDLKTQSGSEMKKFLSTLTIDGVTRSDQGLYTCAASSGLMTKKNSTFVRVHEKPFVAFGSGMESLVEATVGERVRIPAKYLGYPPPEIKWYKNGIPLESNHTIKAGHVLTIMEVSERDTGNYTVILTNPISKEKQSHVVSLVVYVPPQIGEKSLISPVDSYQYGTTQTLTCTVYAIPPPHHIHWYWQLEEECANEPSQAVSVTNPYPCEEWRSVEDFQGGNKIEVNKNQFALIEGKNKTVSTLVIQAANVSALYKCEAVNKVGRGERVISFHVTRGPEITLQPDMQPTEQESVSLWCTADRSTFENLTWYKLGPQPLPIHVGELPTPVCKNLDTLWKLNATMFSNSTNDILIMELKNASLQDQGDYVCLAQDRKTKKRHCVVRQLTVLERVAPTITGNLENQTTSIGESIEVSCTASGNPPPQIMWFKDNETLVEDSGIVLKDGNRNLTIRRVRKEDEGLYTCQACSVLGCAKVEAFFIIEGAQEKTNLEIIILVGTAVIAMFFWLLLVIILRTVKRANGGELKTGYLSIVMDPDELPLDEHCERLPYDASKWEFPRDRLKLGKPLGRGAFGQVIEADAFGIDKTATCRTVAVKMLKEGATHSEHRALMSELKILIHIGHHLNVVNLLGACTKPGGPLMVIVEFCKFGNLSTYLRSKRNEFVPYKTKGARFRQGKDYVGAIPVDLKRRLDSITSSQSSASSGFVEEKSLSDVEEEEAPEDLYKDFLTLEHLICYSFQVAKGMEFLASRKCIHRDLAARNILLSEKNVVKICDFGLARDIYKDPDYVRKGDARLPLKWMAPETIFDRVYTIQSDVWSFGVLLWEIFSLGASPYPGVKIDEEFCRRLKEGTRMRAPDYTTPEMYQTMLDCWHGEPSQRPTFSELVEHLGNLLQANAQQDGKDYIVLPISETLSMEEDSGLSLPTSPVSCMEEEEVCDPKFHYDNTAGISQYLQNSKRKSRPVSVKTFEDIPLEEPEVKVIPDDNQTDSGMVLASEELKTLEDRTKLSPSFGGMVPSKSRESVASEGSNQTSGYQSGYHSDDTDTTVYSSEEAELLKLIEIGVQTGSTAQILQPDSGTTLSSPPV

Percent inhibition against VEGFR-2 (in words) (VEGFR-2)	SMILES	further results
lack of VEGFR-2 inhibition	CNC(=O)c1cc(O[C@H]2CC[C@@H](NC(=O)Nc3ccc(Cl)c(C(F)(F)F)c3)CC2)ccn1 [compound 17]	
displayed potency towards VEGFR-2	CNC(=O)c1cc(Oc2ccc(NC(=O)Nc3ccc(OC(F)(F)F)cc3)cc2)ccn1 [compound 22]	
displayed potency towards VEGFR-2	CNC(=O)c1cc(Oc2ccc(NC(=O)NC34CC5CC(CC(C5)C3)C4)cc2)ccn1 [compound 21]	

Further lines, the compound ahead of its results:

SMILES	Percent inhibition against VEGFR-2 (in words) (VEGFR-2)	further results
CNC(=O)c1cc(Oc2ccc(NC(=O)Nc3ccc(Cl)c(C(F)(F)F)c3)cc2)ccn1 [sorafenib]		anti-inflammatory response (in words) [1]: exhibits similar anti-inflammatory responses as conventional sEH inhibitors
CNC(=O)c1ccc(O[C@H]2CC[C@H](NC(=O)Nc3ccc(Cl)c(C(F)(F)F)c3)CC2)cn1 [compound 9]	displayed potency towards VEGFR-2	fold less activity against C-RAF relative to t-CUPM (C-RAF): 2.3 fold
O=C(Nc1ccc(OC(F)(F)F)cc1)N[C@H]1CC[C@H](Oc2ccc(C(=O)O)cc2)CC1 [compound 12, trans-4-{4-[3-(4-trifluoromethoxy-phenyl)-ureido]-cyclohexyloxy}-benzoic acid]		multi-kinase inhibition (in words) (10 recombinant kinases): no significant multi-kinase inhibition
CNC(=O)c1cc(O[C@H]2CC[C@H](NC(=O)Nc3ccc(Cl)c(C(F)(F)F)c3)CC2)ccn1 [compound 4, trans-4-{4-[3-(4-chloro-3-trifluoromethyl-phenyl)-ureido]-cyclohexyloxy}-pyridine-2-carboxylic acid methylamide]	displayed potency towards VEGFR-2	
O=C(Nc1ccc(Cl)c(C(F)(F)F)c1)N[C@H]1CC[C@H](Oc2cccc(C(=O)O)c2)CC1 [compound 7, trans-3-{4-[3-(4-chloro-3-trifluoromethyl-phenyl)-ureido]-cyclohexyloxy}-benzoic acid]	lack of VEGFR-2 inhibition	
CS(=O)(=O)N1CCC(NC(=O)Nc2ccc(OC(F)(F)F)cc2)CC1 [TUPS]		effect on cell viability (in words) (HepG2): no observable effects on cell viability; effect on cell viability (in words) (Huh-7): no observable effects on cell viability
CNC(=O)c1cccc(O[C@H]2CC[C@H](NC(=O)Nc3ccc(Cl)c(C(F)(F)F)c3)CC2)c1 [compound 8]		Percent inhibition against VEGFR-2 (in words) (VEGFR-2; 10 µM): little inhibitory activity; also recorded: lack of VEGFR-2 inhibition
